Measured values taken from PMC9643456, “Matching amino acids membrane preference profile to improve activity of antimicrobial peptides” (Communications Biology, 2022).
≈ marks a conversion by molar mass, not a printed value. Square brackets hold non-standard residues; d marks the D form. Ends that are not written are not given here. Peptide text beside a SMILES is read from it.

Experiments:
[1] = tested on: human red blood cells; experiment: Hemolytic activity; assay type: cell-based
How it was run: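 Haemolysis was read as A540 of cleared supernatants after 18 h at 37 °C, with 0% and 100% lysis set by peptide-free PBS and 1% Triton X-100 and melittin as positive control. Human RBCs were at 4% final, peptide serially diluted 100–0.78 μM; three replicates.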

[2] = Maximum soluble concentration / turbidity; assay type: physicochemical; settings: for Maximum soluble concentration in PBS: lyophilized peptide reconstructed in PBS at 200-6.25 μM, visible turbidity checked every 12 h for 5 days, at least twice
Procedure: Supplementary Methods Bacteria preparation, Antimicrobial peptides preparation, Minimal-inhibitory-concentration measurements, Hemolysis-activity measurements, Tryptophan fluorescence measurements, Isothermal titration calorimetry measurements, Bacteria membrane ion permeation measurements, Outer-inner membrane permeation, Field-emission scanning electron microscopy and Antimicrobial kinetics were performed as described in Materials and Methods. Liposome (LUV) preparation. Bacterial-membrane-mimic DMPC/DMPG unilamellar vesicles (LUV) and mammalian- membrane-mimic PC/cholesterol vesicles with 100-nm diameters were prepared by extrusion. LiposoFast Liposome Factory Basic unit with stabilizer (Avestin, Ottawa, Canada) was used to extrude liposomes 50 times through a polycarbonate membrane filter (pore diameter, 100 nm; filter diameter, 0.75 inches) (Avestin). […] rac-(1-glycerol)) (sodium salt) (DMPG) (Avanti, Alabama, USA); 1,2-Dimyristoyl-sn-glycero-3-phosphocholine (DMPC) (Avanti); and cholesterol (Sigma, Darmstadt, Germany) were used. For circular dichroism, isothermal titration calorimetry, tryptophan fluorescence, and dynamic light scattering experiments, liposomes were reconstructed and resuspendedwith phosphate-buffered saline (PBS; Welgene Inc, Gyeongsangbuk-do, Korea). For calcein-permeation tests, liposomes were reconstructed with calcein solutions (80 mM, 40 mM, 30 mM, 20 mM, and 10 mM) (Sigma, Darmstadt, Germany), purified with Sephadex-G50 columns (Pharmacia biotech, Stockholm, Sweden), and resuspended with PBS. Maximum-soluble -concentration measurements. […] turbidity with PBS. The lowest concentration of peptide without visible turbidity was determined to be the maximu m soluble concentration. Each experiment was performed at least twice. Circular dichroism (CD) spectrum. DMPC/PG -liposome, PC/cholesterol -liposome, and peptide stock solutions were diluted in PBS. For circular dichroism, PBS with neither liposome nor peptides was also prepared. Liposomes and peptides were mixed to […] Samples were transferred into type J/1 cuvettes (Jasco, Tokyo, Japan). Cuvettes were placed into the J -815 circular -dichroism spectrometer (Jasco, Tokyo, Japan). Measurement parameters were as follows: wavelength, 190 -260 nm; data pitch, 0.2 nm; bandwidth, 1.00 nm; […] Each experiment was performed in triplicate. Data below 197 nm was not analyzed because o f experimental difficulties in obtaining those spectra. Each experiment was performed at least twice. Artificial membrane calcein permeation measurements. Calcein fluorescence was used to measure peptide -induced liposome permeation. Calcein solutions (10 mM, 20 mM, or 60 mM) containing PC/PG liposomes and peptides were diluted in PBS ( ×1, ×2, ×3, ×8). […] Liposome solutions (180 μl) were transferred to wells of black, clear -bottomed 96 -well plates (Costar, New York, USA). Peptide […] Liposome-containing plates and peptide -containing plates were inserted into a Flexstation 3 Multi -Mode Microplate Reader (Molecular Devices, California, USA). Peptide solutions (20 μl) were transferred and mixed with liposome solution automatical ly after 30 sec. […] Measurement parameters were as follows: excitation, 490 nm; emission, 520 nm; temperature, 37 °C. […] was transferred and mixed with the liposome -peptide solu tions automatically after 300 sec to acquire fluorescence at maximum leakage. […] Fluorescence measured between 0 -300 sec after addition of 0 μg/ml peptide was considered the baseline. Each experiment was performed at least twice. Dynamic light scattering (DLS) measurements. Dynamic light scattering was used to measure peptide -induced liposome volume changes. PC/PG -liposome stock solutions and peptides were resuspended in PBS. Liposomes and peptides were mixed to […]

[3] = tested on: E. aerogenes NCCP 16285; experiment: microbe, parasite or virus in culture
Procedure: To assess antimicrobial activity, the MIC50 and MIC90 were measured using broth microdilution following CLSI guidelines. […] Each experiment was performed in triplicate. Meropenem (Sigma, Darmstadt, Germany) and colistin were used as control antibiotics. Cation-adjusted Mueller–Hinton broth (CAMHB) (Becton, Dickinson and Company, Franklin Lakes, USA) with supplied calcium (50 mg/L) and magnesium (10 mg/L) was used for the CLSI-test condition. Bacteria in midlog phase and peptides were separately diluted in CAMHB. The bacteria and peptide solutions were then mixed in 96-well polyethylene plates (SPL, Gyeonggi-do, Korea) and incubated for 18 h at 37 °C. The final concentration for bacteria was 5 × 10^5 CFU/ml. […] The MIC was defined to be the lowest concentration of peptide without visible turbidity by comparing with control antibiotics with the unaided eye. […] Each experiment was performed in triplicate. MICs in albumin and acetic acid solutions were measured using the same protocol but with 0.2% bovine serum albumin (Bovogen, Keilor, Australia), 0.01% acetic acid (Merck, New Jersey, USA), and CAMHB with both calcium and magnesium. In addition, MICs used in the antibiotic resistance acquisition test, the outer–inner membrane permeation test, and the transmembrane potential test and for FE-SEM were individually determined. The final bacterial concentrations used were as follows: for resistance acquisition, optical density (OD) 0.01; for outer–inner membrane permeability assays (LB), OD 0.1; for the transmembrane potential test, 1 × 10^8 CFU/ml (OD 0.171); […]. Inhibitory activity unidentifiable by direct observation was determined by counting the CFUs. Each experiment was performed at least twice.

Molecule	Hemolysis percent, 25 μM ([1]; red cells of human, 18 h, 25) [%]	Hemolysis percent, 50 μM ([1]; red cells of human, 18 h, 50) [%]	Hemolysis percent, 100 μM ([1]; red cells of human, 18 h, 100) [%]	Maximum soluble concentration in PBS [2] [µM]	MIC, E. aerogenes NCCP 16285 ([3]; NCCP 16285, 18 h) [µM]	Turbidity in PBS ([2]; 10 mg/ml peptide in PBS)	MIC, E. aerogenes NCCP 16285 ([3]; MIC test, 5 x 10^5 cfu/ml, CAMHB) [µM]	Hemolysis percent, 25 μM ([1]; peptide 25 μM, 8% human red blood cells in PBS (final 4%), 18 h 37 °C, absorbance 540 nm, 1% Triton X-100 = 100%, triplicate) [%]	Hemolysis percent, 50 μM ([1]; peptide 50 μM, 8% human red blood cells in PBS (final 4%), 18 h 37 °C, absorbance 540 nm, 1% Triton X-100 = 100%, triplicate) [%]	Hemolysis percent, 100 μM ([1]; peptide 100 μM, 8% human red blood cells in PBS (final 4%), 18 h 37 °C, absorbance 540 nm, 1% Triton X-100 = 100%, triplicate) [%]
RLWWRWIVR-NH2 [HLWCopW29-4]	1.02 ±0.01	1.08 ±0.04	2.47 ±0.03	> 200						
CC[C@@H](C)[C@@H](NC(=O)[C@@H](Cc1c[nH]c2ccccc12)NC(=O)[C@@H](CCCNC(=N)N)NC(=O)[C@@H](CCCNC(=N)N)NC(=O)[C@H](N)CCCNC(=N)N)C(=O)N[C@H](Cc1c[nH]c2ccccc12)C(=O)N[C@@H](C(=O)N[C@@H](C(=O)N[C@H](Cc1c[nH]c2ccccc12)C(=O)N[C@H](CCCCN)C(N)=O)[C@H](C)CC)C(C)C [WCopW43] (H-[dR][dR][dR][dW][dI][dW][dV][dI][dW][dK]-NH2)	1.12 ± 0.20	2.22 ± 0.67	5.02 ±0.63		1.25 (≈ 1.87 µg/mL)	turbid				
WLVWIWRRR-NH2 [LWCopW29]	0.84 ±0.06	5.15 ±0.15	13.65 ±0.74	> 200						
Colistin							> 5	0.24 ±0.09	0.31	0.39 ±0.06
CC[C@@H](C)[C@@H](NC(=O)[C@@H](Cc1c[nH]c2ccccc12)NC(=O)[C@H](NC(=O)[C@@H](CC(C)C)NC(=O)[C@H](N)Cc1c[nH]c2ccccc12)C(C)C)C(=O)N[C@H](Cc1c[nH]c2ccccc12)C(=O)N[C@H](CCCNC(=N)N)C(=O)N[C@H](CCCNC(=N)N)C(=O)N[C@H](CCCNC(=N)N)C(N)=O [WCopW29] (H-[dW][dL][dV][dW][dI][dW][dR][dR][dR]-NH2)				> 200						
